Read-outs that look alike come from different tables or passages of the source.
How the values were obtained:
Type in all cases: in vivo
[1] = test system: Italian ryegrass (Lolium multiflorum); assay: Test B pre-/postemergence plant response
Summary of the method: (§1)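 Greenhouse pots, loam/sand soil; compound formulated with surfactant in non-phytotoxic solvent. Preemergence soil spray and postemergence spray at 1–2 leaf stage run simultaneously. Visual injury, 0–100, about 10 days post-treatment.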

[2] = test system: barnyardgrass (Echinochloa crus-galli); assay: Test B pre-/postemergence plant response; conditions: for pest or weed control at 125 g/ha / pest or weed control at 500 g/ha: Echinochloa crus-galli, 240 h, read-out: Plant response rating, Barnyardgrass; for pest or weed control at 500 g/ha: 500 g ai/ha
Summary of the method: as §1

[3] = test system: corn (Zea mays); assay: Test B pre-/postemergence plant response; conditions: for Corn plant response rating (crop injury, 0 = no effect, 100 = complete kill) at 125 g/ha / Corn plant response rating (crop injury, 0 = no effect, 100 = complete kill) at 500 g/ha: Zea mays, 240 h; for Corn plant response rating (crop injury, 0 = no effect, 100 = complete kill) at 500 g/ha: 500 g ai/ha
Summary of the method: as §1

[4] = test system: giant foxtail (Setaria faberii); assay: Test B pre-/postemergence plant response; conditions: for pest or weed control at 125 g/ha / pest or weed control at 500 g/ha: Setaria faberi, 240 h, read-out: Plant response rating, Foxtail, Giant; for pest or weed control at 500 g/ha: 500 g ai/ha
Summary of the method: as §1

[5] = test system: kochia (Kochia scoparia); assay: Test B pre-/postemergence plant response
Summary of the method: as §1

[6] = test system: pigweed (Amaranthus retroflexus); assay: Test B pre-/postemergence plant response; conditions: for pest or weed control at 125 g/ha / pest or weed control at 500 g/ha: Amaranthus retroflexus, 240 h, read-out: Plant response rating, Pigweed; for pest or weed control at 500 g/ha: 500 g ai/ha
Summary of the method: as §1

[7] = test system: ragweed (common ragweed, Ambrosia elatior); assay: Test B pre-/postemergence plant response
Summary of the method: as §1

[8] = test system: wheat (Triticum aestivum); assay: Test B pre-/postemergence plant response; conditions: for plant injury at 125 g/ha / plant injury at 500 g/ha: Triticum aestivum, 240 h, read-out: Plant response rating, Wheat; for plant injury at 500 g/ha: 500 g ai/ha
Summary of the method: as §1

[9] = test system: blackgrass (Alopecurus myosuroides); assay: Test B postemergence plant response; conditions: 0 to 100 scale, 0 no effect, 100 complete control
Summary of the method: (§2)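 Injury was assessed visually about 10 days after treatment, scored from 0 (no effect) to 100 (complete control) by comparison with untreated controls. Test chemicals had been applied postemergence to potted plants at the one- to two-leaf stage, grown in loam soil and sand in a greenhouse.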

[10] = test system: galium (catchweed bedstraw, Galium aparine); assay: Test B postemergence plant response; conditions: 0 to 100 scale, 0 no effect, 100 complete control
Summary of the method: as §2

[11] = test system: barnyardgrass (Echinochloa crus-galli); assay: Test C flooded paddy test plant response; conditions: Flood, 250 g ai/ha, scale of 0 to 100 where 0 is no effect and 100 is complete control, 13 to 15 days; for pest or weed control at 250 g/ha: Echinochloa crus-galli, read-out: Barnyardgrass plant response rating
Summary of the method: (§3)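 Plants grown to 2-leaf stage, flooded 3 cm above soil; compounds applied directly into paddy water, depth kept throughout. Visual rating versus controls after 13 to 15 days in greenhouse, 0 (no effect) to 100 (complete control).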

[12] = test system: ducksalad (Heteranthera limosa); assay: Test C flooded paddy test plant response; conditions: Flood, 250 g ai/ha, scale of 0 to 100 where 0 is no effect and 100 is complete control, 13 to 15 days; for pest or weed control at 250 g/ha: Heteranthera limosa, read-out: Ducksalad plant response rating
Summary of the method: as §3

[13] = test system: rice (Oryza sativa); assay: Test C flooded paddy test plant response; conditions: Flood, 250 g ai/ha, scale of 0 to 100 where 0 is no effect and 100 is complete control, 13 to 15 days; for plant injury at 250 g/ha: Oryza sativa, read-out: Rice plant response rating
Summary of the method: as §3

[14] = test system: small-flower umbrella sedge (Cyperus difformis); assay: Test C flooded paddy test plant response; conditions: Flood, 250 g ai/ha, scale of 0 to 100 where 0 is no effect and 100 is complete control, 13 to 15 days; for pest or weed control at 250 g/ha: Cyperus difformis, read-out: Sedge, Umbrella plant response rating
Summary of the method: as §3

[15] = 31 g ai/ha, Postemergence, 0 to 100 scale, 0 no effect, 100 complete control
[16] = 125 g ai/ha, postemergence, 0 to 100 scale, 0 no effect, 100 complete control
[17] = Preemergence, 31 g ai/ha, 0 to 100 scale (0 no effect, 100 complete control)
[18] = Preemergence, 125 g ai/ha, 0 to 100 scale where 0 is no effect and 100 is complete control
[19] = post-emergence, 125 g ai/ha, postemergence, 0 to 100 scale, 0 no effect, 100 complete control
[20] = post-emergence, Postemergence, 0 to 100 scale (0 no effect, 100 complete control)
[21] = pre-emergence, Preemergence, 125 g ai/ha, 0 to 100 scale where 0 is no effect and 100 is complete control
[22] = pre-emergence, Preemergence, 0 to 100 scale where 0 is no effect and 100 is complete control

COc1cccc(Oc2ncc(Cl)cn2)c1-c1cc(C(F)(F)F)no1 [Compound 104]
Plant response rating, Ryegrass, Italian [1, 15]: 0 | Plant response rating, Ryegrass, Italian [1, 16]: 30 | Ryegrass, Italian plant response rating [1, 17]: 0 | Plant response rating, Ryegrass, Italian [1, 18]: 10 | Plant response rating, Barnyardgrass [2, 15]: 10 | Plant response rating, Barnyardgrass [2, 16]: 60 | Barnyardgrass plant response rating [2, 17]: 20 | Plant response rating, Barnyardgrass [2, 18]: 80 | Plant response rating, Corn [3, 15]: 10 | Plant response rating, Corn [3, 16]: 30 | Plant response rating, Foxtail, Giant [4, 15]: 20 | Plant response rating, Foxtail, Giant [4, 16]: 80 | Foxtail, Giant plant response rating [4, 17]: 40 | Plant response rating, Foxtail, Giant [4, 18]: 100 | Plant response rating, Kochia [5, 15]: 50 | Plant response rating, Kochia [5, 16]: 80 | Kochia plant response rating [5, 17]: 0 | Plant response rating, Kochia [5, 18]: 10 | Plant response rating, Pigweed [6, 15]: 90 | Plant response rating, Pigweed [6, 16]: 90 | Pigweed plant response rating [6, 17]: 80 | Plant response rating, Pigweed [6, 18]: 100 | Plant response rating, Ragweed [7, 15]: 10 | Plant response rating, Ragweed [7, 16]: 10 | Ragweed plant response rating [7, 17]: 0 | Plant response rating, Ragweed [7, 18]: 0 | Plant response rating, Wheat [8, 15]: 0 | Plant response rating, Wheat [8, 16]: 10 | Plant response rating, Blackgrass ([9]; 31 g ai/ha, Postemergence): 70 | Plant response rating, Blackgrass ([9]; 125 g ai/ha, postemergence): 100 | Plant response rating, Galium ([10]; 31 g ai/ha, Postemergence): 90 | Plant response rating, Galium ([10]; 125 g ai/ha, postemergence): 100 | Barnyardgrass plant response rating [11]: 20 | Ducksalad plant response rating [12]: 75 | Rice plant response rating [13]: 0 | Sedge, Umbrella plant response rating [14]: 80

FCc1cc(-c2ccccc2Oc2ncc(Cl)cn2)no1 [Compound 32, 5-chloro-2-[2-[5-(fluoromethyl)-3-isoxazolyl]phenoxy]pyrimidine]
pest or weed control at 125 g/ha [2, 19]: 70% | pest or weed control at 500 g/ha [2, 20]: 90% | pest or weed control at 125 g/ha [2, 21]: 90% | pest or weed control at 500 g/ha [2, 22]: 90% | Corn plant response rating (crop injury, 0 = no effect, 100 = complete kill) at 125 g/ha [3, 19]: 10% | Corn plant response rating (crop injury, 0 = no effect, 100 = complete kill) at 500 g/ha [3, 20]: 50% | Corn plant response rating (crop injury, 0 = no effect, 100 = complete kill) at 125 g/ha [3, 21]: 0% | Corn plant response rating (crop injury, 0 = no effect, 100 = complete kill) at 500 g/ha [3, 22]: 0% | pest or weed control at 125 g/ha [4, 19]: 70% | pest or weed control at 500 g/ha [4, 20]: 90% | pest or weed control at 125 g/ha [4, 21]: 90% | pest or weed control at 500 g/ha [4, 22]: 100% | pest or weed control at 125 g/ha [6, 19]: 100% | pest or weed control at 500 g/ha [6, 20]: 100% | pest or weed control at 125 g/ha [6, 21]: 100% | pest or weed control at 500 g/ha [6, 22]: 100% | plant injury at 125 g/ha [8, 19]: 30% | plant injury at 500 g/ha [8, 20]: 60% | plant injury at 125 g/ha [8, 21]: 0% | plant injury at 500 g/ha [8, 22]: 10% | pest or weed control at 250 g/ha [11]: 0% | pest or weed control at 250 g/ha [12]: 90% | plant injury at 250 g/ha [13]: 20% | pest or weed control at 250 g/ha [14]: 85%

FC(F)(F)Oc1ccc(-c2ccccc2Oc2ncc(Cl)cn2)cc1 [Compound 42, 5-chloro-2-[[4′-(trifluoromethoxy)[1,1′-biphenyl]-2-yl]oxy]pyrimidine]
pest or weed control at 125 g/ha [2, 19]: 20% | pest or weed control at 500 g/ha [2, 20]: 30% | pest or weed control at 125 g/ha [2, 21]: 20% | pest or weed control at 500 g/ha [2, 22]: 70% | Corn plant response rating (crop injury, 0 = no effect, 100 = complete kill) at 125 g/ha [3, 19]: 20% | Corn plant response rating (crop injury, 0 = no effect, 100 = complete kill) at 500 g/ha [3, 20]: 20% | Corn plant response rating (crop injury, 0 = no effect, 100 = complete kill) at 125 g/ha [3, 21]: 0% | Corn plant response rating (crop injury, 0 = no effect, 100 = complete kill) at 500 g/ha [3, 22]: 0% | pest or weed control at 125 g/ha [4, 19]: 10% | pest or weed control at 500 g/ha [4, 20]: 30% | pest or weed control at 125 g/ha [4, 21]: 70% | pest or weed control at 500 g/ha [4, 22]: 100% | pest or weed control at 125 g/ha [6, 19]: 60% | pest or weed control at 500 g/ha [6, 20]: 80% | pest or weed control at 125 g/ha [6, 21]: 50% | pest or weed control at 500 g/ha [6, 22]: 90% | plant injury at 125 g/ha [8, 19]: 0% | plant injury at 500 g/ha [8, 20]: 0% | plant injury at 125 g/ha [8, 21]: 0% | plant injury at 500 g/ha [8, 22]: 0% | pest or weed control at 250 g/ha [11]: 0% | pest or weed control at 250 g/ha [12]: 0% | plant injury at 250 g/ha [13]: 0% | pest or weed control at 250 g/ha [14]: 0%
